Assays:
[1] = target: T1, P2X purinoceptor 7 (Homo sapiens, UniProt Q99572); assay: Antagonist activity at human P2X7 receptor expressed in 1321N1 cells by FLIPR assay; assay type: cell-based
T1 sequence (Q99572 whole entry): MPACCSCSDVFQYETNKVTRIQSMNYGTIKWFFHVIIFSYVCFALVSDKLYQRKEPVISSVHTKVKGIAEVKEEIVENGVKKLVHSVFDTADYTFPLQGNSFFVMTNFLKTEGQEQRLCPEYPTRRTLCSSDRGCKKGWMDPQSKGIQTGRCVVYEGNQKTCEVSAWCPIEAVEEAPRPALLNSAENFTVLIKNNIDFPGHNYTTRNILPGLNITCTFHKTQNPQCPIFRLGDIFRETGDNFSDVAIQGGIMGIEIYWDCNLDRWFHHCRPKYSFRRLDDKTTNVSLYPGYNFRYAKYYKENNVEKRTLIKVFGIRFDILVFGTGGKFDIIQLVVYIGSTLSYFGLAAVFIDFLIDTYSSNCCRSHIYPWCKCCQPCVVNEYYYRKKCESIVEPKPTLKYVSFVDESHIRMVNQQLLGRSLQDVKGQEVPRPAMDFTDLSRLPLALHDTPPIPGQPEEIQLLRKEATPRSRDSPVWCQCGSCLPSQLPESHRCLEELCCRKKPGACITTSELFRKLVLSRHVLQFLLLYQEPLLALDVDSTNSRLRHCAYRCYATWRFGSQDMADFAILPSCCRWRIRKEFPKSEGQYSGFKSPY

[2] = target: T1, P2X purinoceptor 7; assay: Inhibition of human P2X7 receptor transfected in HEK293 cells by calcium influx assay; assay type: cell-based
[3] = target: T1, P2X purinoceptor 7; assay: Antagonist activity at human P2X7 receptor by calcium flux assay
[4] = target: T2, P2X purinoceptor 7 (Rattus norvegicus, UniProt Q64663); assay: Antagonist activity at rat P2X7 receptor by calcium flux assay
T2 sequence (Q64663 whole entry): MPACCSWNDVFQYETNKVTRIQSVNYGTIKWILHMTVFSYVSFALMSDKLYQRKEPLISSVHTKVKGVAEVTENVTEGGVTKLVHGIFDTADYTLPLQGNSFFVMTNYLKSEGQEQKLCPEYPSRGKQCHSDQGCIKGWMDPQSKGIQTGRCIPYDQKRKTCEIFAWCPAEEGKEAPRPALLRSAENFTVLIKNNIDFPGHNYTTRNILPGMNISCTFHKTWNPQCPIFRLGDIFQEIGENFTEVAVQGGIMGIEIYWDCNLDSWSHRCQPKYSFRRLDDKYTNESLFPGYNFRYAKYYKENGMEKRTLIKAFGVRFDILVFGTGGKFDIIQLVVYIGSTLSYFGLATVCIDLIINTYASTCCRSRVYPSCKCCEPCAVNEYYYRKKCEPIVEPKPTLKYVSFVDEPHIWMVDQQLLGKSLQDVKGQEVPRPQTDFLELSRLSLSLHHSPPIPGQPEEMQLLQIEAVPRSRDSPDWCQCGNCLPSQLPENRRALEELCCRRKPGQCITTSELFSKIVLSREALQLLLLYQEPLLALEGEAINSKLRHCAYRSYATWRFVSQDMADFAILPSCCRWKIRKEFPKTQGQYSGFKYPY

[5] = target: T3, P2X purinoceptor 7 (Mus musculus, UniProt Q9Z1M0); assay: Antagonist activity at mouse P2X7 receptor by calcium flux assay
T3 sequence (Q9Z1M0 whole entry): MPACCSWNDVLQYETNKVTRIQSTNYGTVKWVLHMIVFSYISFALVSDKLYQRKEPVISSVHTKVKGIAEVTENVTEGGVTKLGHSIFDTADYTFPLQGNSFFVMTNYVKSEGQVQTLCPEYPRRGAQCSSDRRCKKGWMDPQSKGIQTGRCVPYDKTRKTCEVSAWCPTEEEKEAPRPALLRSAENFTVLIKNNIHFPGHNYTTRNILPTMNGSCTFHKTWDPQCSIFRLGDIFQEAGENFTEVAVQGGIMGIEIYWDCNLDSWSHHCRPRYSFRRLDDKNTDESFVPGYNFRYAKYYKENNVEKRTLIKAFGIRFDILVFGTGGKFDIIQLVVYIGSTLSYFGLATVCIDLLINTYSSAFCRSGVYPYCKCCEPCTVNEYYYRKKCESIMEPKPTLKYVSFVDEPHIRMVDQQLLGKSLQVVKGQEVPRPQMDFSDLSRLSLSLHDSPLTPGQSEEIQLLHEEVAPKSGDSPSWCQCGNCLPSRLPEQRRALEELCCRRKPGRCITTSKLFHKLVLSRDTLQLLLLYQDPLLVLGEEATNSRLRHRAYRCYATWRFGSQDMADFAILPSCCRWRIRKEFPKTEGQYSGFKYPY

[6] = target: T1, P2X purinoceptor 7; assay: Antagonist activity at human P2X7 receptor
[7] = target: T4, P2X purinoceptor 7 (Mus musculus) (UniProt Q9Z1M0); assay: Antagonist activity at P2X7 receptor in mouse Peritoneal macrophage cells assessed as ATP induced dye uptake at 10 uM relative to control; assay type: cell-based
T4 sequence (whole entry): T3 sequence (Q9Z1M0 whole entry)

[8] = target: T1, P2X purinoceptor 7; assay: Antagonist activity at P2X7 receptor in human THP-1 cells assessed as reduction in ATP induced IL-1 beta release; assay type: cell-based
[9] = target: T3, P2X purinoceptor 7; assay: Antagonist activity at P2X7 receptor in mouse Peritoneal macrophage cells assessed as reduction in ATP induced IL-1 beta release; assay type: cell-based
[10] = target: T1, P2X purinoceptor 7; assay: Antagonist activity at human P2X7 receptor expressed in HEK293 by fluorescence plate reader analysis; assay type: cell-based

Compound: COc1ccc(C)c(Nc2nc(=O)cnn2Cc2cncc(F)c2)c1
- IC50 [1]: 100 nM

Compound: O=C(NCc1cccc(C(F)(F)F)c1Cl)C1(F)CCC(O)c2ncccc21 (centres undefined)
- IC50 [2]: < 50 nM

Compound: Cc1noc(C)c1Cc1noc(=O)n1CC1CCC(F)(F)CC1
- IC50 [3]: < 200 nM
- IC50 [4]: 200 nM
- IC50 [5]: 1000 nM

Compound: Cc1c(Cl)cccc1Nc1nc(=O)cc2n1C(c1ccccc1)CO2 (centres undefined)
- IC50 [6]: < 10 nM

Compound: Cc1c(F)cc(CO)cc1Nc1nc(=O)cnn1Cc1cc(F)c(F)c(F)c1
- IC50 [1]: 3 nM

Compound: O=c1onc(CN2CCC(F)(F)CC2)n1CC1CCC(F)(F)CC1
- IC50 [3]: > 10000 nM
- IC50 [4]: > 10000 nM
- IC50 [5]: > 10000 nM

Compound: O=c1onc(Cc2c(F)cccc2Cl)n1CC1CCCCCC1
- IC50 [3]: < 200 nM
- IC50 [4]: < 200 nM
- IC50 [5]: 200 nM

Compound: Cc1ncccc1Cc1noc(=O)n1CC1CCC(F)(F)CC1
- IC50 [3]: 200 nM
- IC50 [4]: 1000 nM
- IC50 [5]: 1000 nM

Compound: O=c1onc(Cc2ccccc2Cl)n1CC1CCC(F)(F)CC1
- IC50 [3]: < 200 nM
- IC50 [4]: < 200 nM
- IC50 [5]: 200 nM

Compound: CCN1C(=O)N=C(Nc2cc(C)c(C)cc2C)N2C1=NCC2c1ccccc1 (centres undefined)
- IC50 [6]: < 10 nM

Compound: COc1nc(C)c(Nc2nc(=O)c3[nH]cnc3n2Cc2ccc(F)c(F)c2)cc1C
- IC50 [6]: < 10 nM

Compound: Cc1c(Cl)cccc1Nc1nc(=O)cc2n1C(c1ccccc1)COC2 (centres undefined)
- IC50 [6]: 1.8 nM

Compound: CS(=O)(=O)C[C@]1(O)CC[C@@](F)(C(=O)NCc2ccc(Cl)cc2Cl)c2cccnc21
- IC50 [2]: < 50 nM

Compound: O=C(NCc1ccc(Cl)cc1Cl)[C@@]1(F)CC[C@](O)(CN2CC(O)C2)c2ncccc21
- IC50 [2]: < 50 nM

Compound: COc1cc(Nc2nc(=O)c(F)cn2Cc2cc(F)c(F)c(F)c2)c(C)c(F)c1OC
- IC50 [1]: < 10 nM

Compound: CC1=C(C(C)n2cc(COCc3ccco3)nn2)C(=O)c2ccccc2C1=O (centres undefined)
- inhibition [7]: < 60%

Compound: CC1=C(C(c2ccccc2)n2cc(COCc3ccco3)nn2)C(=O)c2ccccc2C1=O (centres undefined)
- IC50 [8]: 140000 nM
- IC50 [9]: 145000 nM
- inhibition ([7]; filed as antagonist): 60%

Compound: CC1=C(Cn2cc(COCc3ccco3)nn2)C(=O)c2ccccc2C1=O
- IC50 [8]: 184000 nM
- IC50 [9]: 160000 nM
- inhibition ([7]; filed as antagonist): 60%

Compound: O=c1onc(CN2CCOc3ccccc32)n1CC1CCC(F)(F)CC1
- IC50 [3]: < 200 nM
- IC50 [4]: < 200 nM
- IC50 [5]: < 200 nM

Compound: COc1cnc(C)c(Nc2nc(=O)c3c(n2Cc2cc(F)c(F)c(F)c2)CCC3)c1
- IC50 [6]: 100 nM

Compound: CN1C(=O)N=C(NCc2ccccc2)N2C1=NCC2c1cc(F)c(F)c(F)c1 (centres undefined)
- IC50 [6]: < 10 nM

Compound: C[C@H]1CCC[C@@](O)(CNC(=O)c2cn(CCC(F)F)c3cccc(Cl)c23)C1
- IC50 [10]: < 10 nM

Compound: Cn1nccc1Nc1nc(=O)c(F)cn1Cc1cc(F)c(F)c(F)c1
- IC50 [1]: > 100 nM

Compound: CC1=C(C(c2ccc(Br)cc2)n2cc(COCc3ccco3)nn2)C(=O)c2ccccc2C1=O (centres undefined)
- inhibition [7]: < 60%

Compound: CCOC(C)CNC(=O)c1cn(C2COC2)c2cccc(Cl)c12 (centres undefined)
- IC50 [10]: > 1000 nM

Compound: Cc1ccc(OCCO)cc1Nc1nc(=O)cnn1Cc1cc(F)c(F)c(F)c1
- IC50 [1]: 9.7 nM

Compound: COc1ccc(Nc2nc(=O)cc3n2C(c2ccccc2)CN3C)c(C)c1 (centres undefined)
- IC50 [6]: < 10 nM

Compound: CC1CC(F)(F)CCN1Cn1c(Cc2c(F)cccc2Cl)noc1=O (centres undefined)
- IC50 [3]: < 200 nM
- IC50 [4]: < 200 nM
- IC50 [5]: < 200 nM

Compound: COc1ccc(Nc2nc(=O)c3[nH]cnc3n2Cc2ccc(F)c(F)c2)c(C)c1
- IC50 [6]: < 10 nM

Compound: Cc1cc(Nc2nc(=O)c3[nH]cnc3n2Cc2ccccc2)c(C)cc1Cl
- IC50 [6]: < 10 nM

Compound: C[C@@H]1CCC[C@](O)(CNC(=O)c2cn(CC3CCCO3)c3cccc(Cl)c23)C1 (some centres undefined)
- IC50 [10]: 10 nM
